Reference: US7678776B2, “Inclusion complexes of butylphthalide with cyclodextrin or its derivatives, a process for their preparation and the use thereof” (Shijiazhuang Pharma. Group Zhongqi Pharmaceutical …, priority 2002, dated 2010)

Test system: marginal ear vein of a rabbit
Assay: vascular irritation assay
Type: in vivo
Conditions: control group, administered into the ear vein for 3 days
Experimental: The vascular irritation assay using inclusion complex of butylphthalide with hydroxypropyl-β-cyclodextrin is provided as follows:
Eight rabbits were divided into two groups, namely, test group and control group. For the test group, 2.45 g/kg of the inclusion complex together with 40 ml of 5% glucose were instilled via the marginal ear vein of a rabbit at the rate of 1.5 ml/min. The administration was once per day and lasted for 3 days. […] The administration lasted for 3 days.

CC(=O)O [10% acetic acid, acetic acid]
vascular irritation (topical findings): topical hyperaemia, thickening, and exudation
